Source: patent US20240285571A1, “METHODS OF TREATING BONE INFECTIONS” (MICROBION CORPORATION, priority 2020, published 2024)
Converted amounts (≈) assume the structure as drawn. Where two headings read alike, the source gives them in different places.

Key:
Type in all cases: cell-based
Escherichia coli = assay: Broth microdilution MIC (Example 6); settings: Escherichia coli
In short: (§1)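 Activity was measured by CLSI broth microdilution using 2-fold serial dilutions and an inoculum of about 5×10^5 CFU/mL. Plates were incubated at 35 °C for 16 to 20 hr. The MIC is the lowest drug concentration that prevented visible growth.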

Klebsiella pneumoniae = assay: Broth microdilution MIC (Example 6); settings: Klebsiella pneumoniae
In short: as §1

Pseudomonas aeruginosa = assay: Broth microdilution MIC (Example 6); settings: Pseudomonas aeruginosa
In short: as §1

Acinetobacter baumannii = assay: Broth microdilution MIC (Example 6); settings: Acinetobacter baumannii
In short: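 CLSI broth microdilution in cation-adjusted Mueller Hinton broth, test agents 0.06-64 μg/mL from DMSO stocks, inoculum approx. 5×10^5 CFU/mL. Incubation 35° C for 16–20 hr; MIC taken as lowest concentration inhibiting visible growth.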

[1] = test system: relevant ATCC QC organisms; assay: Broth microdilution MIC, QC (Example 6)
In short: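 QC strains were tested per CLSI broth microdilution in cation-adjusted Mueller Hinton broth, with Ca2+ supplemented for daptomycin, at about 5×10^5 CFU/mL. Incubation was at 35° C for 16–20 hr, or 24 hr for vancomycin against S. aureus. The MIC was the lowest concentration inhibiting visible growth.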

[2] = ATCC35218, E. coli ATCC 35218, ESBL, read-out: MIC
[3] = E. coli MMX 5755, ESBL, read-out: MIC
[4] = E. coli MMX 5756, ESBL, read-out: MIC
[5] = E. coli MMX 5758, ESBL, read-out: MIC
[6] = K. pneumoniae CDC 135, ESBL/VIM, read-out: MIC
[7] = K. pneumoniae MMX 9029, ESBL, read-out: MIC
[8] = P. aeruginosa isolate CDC 230, β-lactamase type VIM/OXA, read-out: MIC
[9] = P. aeruginosa isolate CDC 241, β-lactamase type IMP/OXA, read-out: MIC
[10] = P. aeruginosa isolate CDC 439, β-lactamase type IMP, read-out: MIC
[11] = P. aeruginosa isolate CDC 444, β-lactamase type VIM, read-out: MIC
[12] = P. aeruginosa isolate CDC 457, β-lactamase type VIM, read-out: MIC

Work on OCC(S)CS.[Bi] (stereo not shown) [MB-2B, bismuth-2,3-dimercaptopropanol] yielded an MIC (Escherichia coli; [2]) of 2 mg/L, an MIC (Escherichia coli; ATCCBAA2471, E. coli ATCC BAA-2471, NDM) of 2 mg/L and an MIC (Escherichia coli; E. coli CDC 114, ESBL/KPC) of 2 mg/L. For the same compound, the MIC (Escherichia coli; E. coli CDC 118, ESBL/NDM) was 4 mg/L, the MIC (Escherichia coli; E. coli CDC 435, NDM) was 2 mg/L and the MIC (Escherichia coli; E. coli CDC 451, KPC) was 2 mg/L. It also gave an MIC (Escherichia coli; E. coli CDC 503, ESBL/NDM) of 2 mg/L, an MIC (Escherichia coli; E. coli MMX 5745, KPC) of 4 mg/L and an MIC (Escherichia coli; [3]) of 4 mg/L. It also gave an MIC (Escherichia coli; [4]) of 2 mg/L, an MIC (Escherichia coli; [5]) of 4 mg/L and an MIC (Klebsiella pneumoniae; ATCCBAA1705, K. pneumoniae ATCC BAA-1705, ESBL/KPC) of 4 mg/L. For the same compound, the MIC (Klebsiella pneumoniae; K. pneumoniae CDC 112, KPC) was 4 mg/L, the MIC (Klebsiella pneumoniae; K. pneumoniae CDC 113, ESBL/KPC) was 32 mg/L and the MIC (Klebsiella pneumoniae; K. pneumoniae CDC 115, ESBL/KPC) was 16 mg/L. The MIC (Klebsiella pneumoniae; K. pneumoniae CDC 120, ESBL/KPC) was 4 mg/L, the MIC (Klebsiella pneumoniae; K. pneumoniae CDC 126, ESBL/KPC) was 32 mg/L and the MIC (Klebsiella pneumoniae; K. pneumoniae CDC 129, ESBL/KPC) was 4 mg/L. It also gave an MIC (Klebsiella pneumoniae; [6]) of 8 mg/L, an MIC (Klebsiella pneumoniae; K. pneumoniae CDC 138, ESBL/NDM) of 16 mg/L and an MIC (Klebsiella pneumoniae; K. pneumoniae CDC 158, ESBL/NDM/OXA) of 4 mg/L. For the same compound, the MIC (Klebsiella pneumoniae; [7]) was 2 mg/L, the MIC (Pseudomonas aeruginosa; [8]) was 4 mg/L and the MIC (Pseudomonas aeruginosa; P. aeruginosa isolate CDC 231, β-lactamase type KPC/OXA) was 16 mg/L. The MIC (Pseudomonas aeruginosa; [9]) was 32 mg/L, the MIC (Pseudomonas aeruginosa; P. aeruginosa isolate CDC 246, β-lactamase type NDM/OXA) was 8 mg/L and the MIC (Pseudomonas aeruginosa; P. aeruginosa isolate CDC 250, β-lactamase type NDM/OXA) was 8 mg/L. For the same compound, the MIC (Pseudomonas aeruginosa; P. aeruginosa isolate CDC 356, β-lactamase type KPC) was 4 mg/L, the MIC (Pseudomonas aeruginosa; [10]) was 4 mg/L and the MIC (Pseudomonas aeruginosa; [11]) was 4 mg/L. It also gave an MIC (Pseudomonas aeruginosa; [12]) of 32 mg/L, an MIC (Pseudomonas aeruginosa; P. aeruginosa isolate CDC 516, β-lactamase type KPC/AmpC) of 4 mg/L and an MIC (Pseudomonas aeruginosa; P. aeruginosa isolate CDC 518, β-lactamase type KPC/AmpC) of 4 mg/L. For the same compound, the MIC (Acinetobacter baumannii; A. baumannii isolate CDC 273, β-lactamase type ESBL/OXA) was 32 mg/L, the MIC (Acinetobacter baumannii; A. baumannii isolate CDC 274, β-lactamase type ESBL/OXA) was 32 mg/L and the MIC (Acinetobacter baumannii; A. baumannii isolate CDC 275, β-lactamase type ESBL/OXA) was 32 mg/L. For the same compound, the MIC (Acinetobacter baumannii; A. baumannii isolate CDC 277, β-lactamase type ESBL/OXA) was > 16 mg/L, the MIC (Acinetobacter baumannii; A. baumannii isolate CDC 284, β-lactamase type ESBL/OXA) was > 16 mg/L and the MIC (Acinetobacter baumannii; A. baumannii isolate CDC 307, β-lactamase type OXA) was 32 mg/L. The MIC (Acinetobacter baumannii; A. baumannii isolate CDC 308, β-lactamase type ESBL/OXA) was 32 mg/L, the MIC (Acinetobacter baumannii; A. baumannii isolate CDC 311, β-lactamase type OXA) was 32 mg/L and the MIC (Acinetobacter baumannii; A. baumannii isolate CDC 312, β-lactamase type OXA) was 32 mg/L. The MIC (Acinetobacter baumannii; A. baumannii isolate CDC 313, β-lactamase type ESBL/OXA) was 32 mg/L, the MIC (Acinetobacter baumannii; NCTC13304, A. baumannii isolate NCTC 13304, β-lactamase type OXA) was > 16 mg/L and the MIC ([1]; Escherichia coli, ATCC25922) was 2 mg/L. It also gave an MIC ([1]; Escherichia coli, ATCC35218) of 2 mg/L, an MIC ([1]; Klebsiella pneumoniae, ATCCBAA1705) of 4 mg/L and an MIC ([1]; Pseudomonas aeruginosa, ATCC27853) of 2 mg/L. For the same compound, the MIC ([1]; Staphylococcus aureus, ATCC29213) was 1 mg/L.

C[C@@H](O)[C@H]1C(=O)N2C(C(=O)O)=C(S[C@@H]3CN[C@H](C(=O)N(C)C)C3)[C@H](C)[C@H]12 [Meropenem] was tested, and the MIC (Escherichia coli; [2]) was ≤ 0.008 mg/L, the MIC (Escherichia coli; ATCCBAA2471, E. coli ATCC BAA-2471, NDM, read-out: MIC) was > 8 mg/L and the MIC (Escherichia coli; E. coli CDC 114, ESBL/KPC, read-out: MIC) was 2 mg/L (≈ 5.22 µM). For the same compound, the MIC (Escherichia coli; E. coli CDC 118, ESBL/NDM, read-out: MIC) was 0.06 mg/L (≈ 0.156 µM), the MIC (Escherichia coli; E. coli CDC 435, NDM, read-out: MIC) was > 8 mg/L and the MIC (Escherichia coli; E. coli CDC 451, KPC, read-out: MIC) was 1 mg/L (≈ 2.61 µM). The MIC (Escherichia coli; E. coli CDC 503, ESBL/NDM, read-out: MIC) was 8 mg/L (≈ 20.9 µM), the MIC (Escherichia coli; E. coli MMX 5745, KPC, read-out: MIC) was 2 mg/L (≈ 5.22 µM) and the MIC (Escherichia coli; [3]) was 0.015 mg/L (≈ 0.0391 µM). The MIC (Escherichia coli; [4]) was ≤ 0.008 mg/L, the MIC (Escherichia coli; [5]) was ≤ 0.008 mg/L and the MIC (Klebsiella pneumoniae; ATCCBAA1705, K. pneumoniae ATCC BAA-1705, ESBL/KPC, read-out: MIC) was 8 mg/L (≈ 20.9 µM). For the same compound, the MIC (Klebsiella pneumoniae; K. pneumoniae CDC 112, KPC, read-out: MIC) was > 8 mg/L, the MIC (Klebsiella pneumoniae; K. pneumoniae CDC 113, ESBL/KPC, read-out: MIC) was > 8 mg/L and the MIC (Klebsiella pneumoniae; K. pneumoniae CDC 115, ESBL/KPC, read-out: MIC) was > 8 mg/L. The MIC (Klebsiella pneumoniae; K. pneumoniae CDC 120, ESBL/KPC, read-out: MIC) was > 8 mg/L, the MIC (Klebsiella pneumoniae; K. pneumoniae CDC 126, ESBL/KPC, read-out: MIC) was 4 mg/L (≈ 10.4 µM) and the MIC (Klebsiella pneumoniae; K. pneumoniae CDC 129, ESBL/KPC, read-out: MIC) was 8 mg/L (≈ 20.9 µM). For the same compound, the MIC (Klebsiella pneumoniae; [6]) was 1 mg/L (≈ 2.61 µM), the MIC (Klebsiella pneumoniae; K. pneumoniae CDC 138, ESBL/NDM, read-out: MIC) was > 8 mg/L and the MIC (Klebsiella pneumoniae; K. pneumoniae CDC 158, ESBL/NDM/OXA, read-out: MIC) was > 8 mg/L. For the same compound, the MIC (Klebsiella pneumoniae; [7]) was 0.015 mg/L (≈ 0.0391 µM), the MIC (Pseudomonas aeruginosa; [8]) was > 8 mg/L and the MIC (Pseudomonas aeruginosa; P. aeruginosa isolate CDC 231, β-lactamase type KPC/OXA, read-out: MIC) was > 8 mg/L. For the same compound, the MIC (Pseudomonas aeruginosa; [9]) was > 8 mg/L, the MIC (Pseudomonas aeruginosa; P. aeruginosa isolate CDC 246, β-lactamase type NDM/OXA, read-out: MIC) was > 8 mg/L and the MIC (Pseudomonas aeruginosa; P. aeruginosa isolate CDC 250, β-lactamase type NDM/OXA, read-out: MIC) was > 8 mg/L. For the same compound, the MIC (Pseudomonas aeruginosa; P. aeruginosa isolate CDC 356, β-lactamase type KPC, read-out: MIC) was > 8 mg/L, the MIC (Pseudomonas aeruginosa; [10]) was > 8 mg/L and the MIC (Pseudomonas aeruginosa; [11]) was > 8 mg/L. For the same compound, the MIC (Pseudomonas aeruginosa; [12]) was > 8 mg/L, the MIC (Pseudomonas aeruginosa; P. aeruginosa isolate CDC 516, β-lactamase type KPC/AmpC, read-out: MIC) was > 8 mg/L and the MIC (Pseudomonas aeruginosa; P. aeruginosa isolate CDC 518, β-lactamase type KPC/AmpC, read-out: MIC) was > 8 mg/L. The MIC (Acinetobacter baumannii; A. baumannii isolate CDC 273, β-lactamase type ESBL/OXA, read-out: MIC) was > 8 mg/L, the MIC (Acinetobacter baumannii; A. baumannii isolate CDC 274, β-lactamase type ESBL/OXA, read-out: MIC) was > 8 mg/L and the MIC (Acinetobacter baumannii; A. baumannii isolate CDC 275, β-lactamase type ESBL/OXA, read-out: MIC) was > 8 mg/L. For the same compound, the MIC (Acinetobacter baumannii; A. baumannii isolate CDC 277, β-lactamase type ESBL/OXA, read-out: MIC) was > 8 mg/L, the MIC (Acinetobacter baumannii; A. baumannii isolate CDC 284, β-lactamase type ESBL/OXA, read-out: MIC) was > 8 mg/L and the MIC (Acinetobacter baumannii; A. baumannii isolate CDC 307, β-lactamase type OXA, read-out: MIC) was 8 mg/L. The MIC (Acinetobacter baumannii; A. baumannii isolate CDC 308, β-lactamase type ESBL/OXA, read-out: MIC) was 8 mg/L, the MIC (Acinetobacter baumannii; A. baumannii isolate CDC 311, β-lactamase type OXA, read-out: MIC) was > 8 mg/L and the MIC (Acinetobacter baumannii; A. baumannii isolate CDC 312, β-lactamase type OXA, read-out: MIC) was 4 mg/L. For the same compound, the MIC (Acinetobacter baumannii; A. baumannii isolate CDC 313, β-lactamase type ESBL/OXA, read-out: MIC) was > 8 mg/L, the MIC (Acinetobacter baumannii; NCTC13304, A. baumannii isolate NCTC 13304, β-lactamase type OXA, read-out: MIC) was > 8 mg/L and the MIC ([1]; Escherichia coli, ATCC25922, E. coli ATCC 25922, read-out: MIC) was ≤ 0.008 mg/L. For the same compound, the MIC ([1]; Escherichia coli, ATCC35218, E. coli ATCC 35218, read-out: MIC) was ≤ 0.008 mg/L, the MIC ([1]; Klebsiella pneumoniae, ATCCBAA1705, K. pneumoniae ATCC BAA-1705, read-out: MIC) was 8 mg/L and the MIC ([1]; Pseudomonas aeruginosa, ATCC27853, P. aeruginosa ATCC 27853, read-out: MIC) was 0.25 mg/L.
